Laboratory results taken from ChEMBL document CHEMBL1158933, “A new polyhalogenated monoterpene from the red alga Plocamium cartilagineum” (J Nat Prod, 1990).
The source made the active and inactive calls. The rule behind the calls is not given here.

Assays:
Bacillus subtilis = assay: Antibacterial activity against Bacillus subtilis ATCC 6633 up to 24 ug by bioautographic test; format: functional, organism-based
Biomphalaria glabrata [1] = assay: Molluscicidal activity in Biomphalaria glabrata assessed as mortality at 5 ppm; format: functional
Escherichia coli = assay: Antibacterial activity against Escherichia coli ATCC 25922 up to 24 ug by bioautographic test; format: functional, organism-based
[2] = Toxicity against Artemia salina assessed as mortality at 120 ug/ml; format: organism-based; conditions: in vivo, read-out: Activity
Micrococcus luteus = assay: Antibacterial activity against Micrococcus luteus ATCC 9341 up to 24 ug by bioautographic test; format: functional, organism-based
Penicillium oxalicum = assay: Antifungal activity against Penicillium oxalicum CBS 219.30 by bioautographic test; format: functional
[3] = Toxicity against Artemia salina assessed as mortality at 12 ug/ml; format: organism-based; conditions: in vivo, read-out: Activity
Biomphalaria glabrata [4] = assay: Molluscicidal activity in Biomphalaria glabrata assessed as mortality at 6 ppm; format: functional, organism-based
Artemia salina = assay: Toxicity against Artemia salina assessed as mortality; format: organism-based; conditions: in vivo
Biomphalaria glabrata [5] = assay: Molluscicidal activity in Biomphalaria glabrata assessed as mortality at 2.5 ppm; format: functional
[6] = Toxicity against Artemia salina assessed as mortality at 100 ug/ml; format: organism-based; conditions: in vivo, read-out: Activity
[7] = Toxicity against Artemia salina assessed as mortality at 10 ug/ml; format: organism-based; conditions: in vivo, read-out: Activity

**Q.** Which Activity (Bacillus subtilis) does the source give for `C[C@]1(Cl)C[C@](C)(/C=C/Cl)[C@H](Br)C[C@@H]1Cl` here?
**A.** The Activity was “inactive”.

**Q.** And the Activity (Biomphalaria glabrata [1])?
**A.** Its Activity is 100%.

**Q.** And the Activity (Escherichia coli)?
**A.** The Activity was “inactive”.

**Q.** What about the mortality at 120 ug/ml [2] of the same compound?
**A.** The mortality at 120 ug/ml was 100%.

**Q.** And the Activity (Micrococcus luteus)?
**A.** The Activity was “inactive”.

**Q.** What about the MIC (Penicillium oxalicum) of the same compound?
**A.** The MIC was 0.6 µg.

**Q.** What about the mortality at 12 ug/ml [3] of the same compound?
**A.** Its mortality at 12 ug/ml is 26%.

**Q.** Which results are given for `C=C(/C=C/[C@@H](Cl)[C@](C)(Cl)/C=C/Br)CCl` (relative stereo)?
**A.** Activity (Bacillus subtilis): inactive; Activity (Escherichia coli): inactive; Activity (Biomphalaria glabrata [4]): inactive; Activity (Micrococcus luteus): inactive; Activity (Artemia salina): Not Active; MIC (Penicillium oxalicum): 0.1 µg

**Q.** For `C[C@@](Cl)(/C=C/Br)[C@@H](Cl)/C=C/C(Cl)(CCl)CBr` (stereo partly specified), which Activity (Bacillus subtilis) is on record?
**A.** The Activity was “inactive”.

**Q.** And the Activity (Escherichia coli)?
**A.** The Activity was “inactive”.

**Q.** And the Activity (Biomphalaria glabrata [4])?
**A.** Its Activity is “inactive”.

**Q.** And the Activity (Micrococcus luteus)?
**A.** Its Activity is “inactive”.

**Q.** What about the Activity (Artemia salina) of the same compound?
**A.** Its Activity is “Not Active”.

**Q.** And the MIC (Penicillium oxalicum)?
**A.** Its MIC is 0.1 µg.

**Q.** With `C[C@]1(Cl)C[C@](C)(Br)[C@@H](/C=C/Cl)C[C@H]1Br` as the compound, how does the Activity (Biomphalaria glabrata [5]) read?
**A.** The Activity was 100%.

**Q.** And the mortality at 100 ug/ml [6]?
**A.** The mortality at 100 ug/ml was 100%.

**Q.** And the Activity (Bacillus subtilis)?
**A.** Its Activity is “inactive”.

**Q.** And the mortality at 10 ug/ml [7]?
**A.** The mortality at 10 ug/ml was 20%.

**Q.** And the Activity (Escherichia coli)?
**A.** The Activity was “inactive”.

**Q.** What about the Activity (Micrococcus luteus) of the same compound?
**A.** The Activity was “inactive”.

**Q.** And the MIC (Penicillium oxalicum)?
**A.** Its MIC is 10 µg.
